{"source": "patent US20170348369A1", "about": "“Plant Extract and Its Therapeutic Use” (Viridis Pharmaceutical Limited, priority 2008, published 2017)", "target": "T1, purified human DNA topoisomerase IIα (Homo sapiens, UniProt P11388)", "T1 construct": "purchased TopoGEN", "T1 sequence (P11388 whole entry)": "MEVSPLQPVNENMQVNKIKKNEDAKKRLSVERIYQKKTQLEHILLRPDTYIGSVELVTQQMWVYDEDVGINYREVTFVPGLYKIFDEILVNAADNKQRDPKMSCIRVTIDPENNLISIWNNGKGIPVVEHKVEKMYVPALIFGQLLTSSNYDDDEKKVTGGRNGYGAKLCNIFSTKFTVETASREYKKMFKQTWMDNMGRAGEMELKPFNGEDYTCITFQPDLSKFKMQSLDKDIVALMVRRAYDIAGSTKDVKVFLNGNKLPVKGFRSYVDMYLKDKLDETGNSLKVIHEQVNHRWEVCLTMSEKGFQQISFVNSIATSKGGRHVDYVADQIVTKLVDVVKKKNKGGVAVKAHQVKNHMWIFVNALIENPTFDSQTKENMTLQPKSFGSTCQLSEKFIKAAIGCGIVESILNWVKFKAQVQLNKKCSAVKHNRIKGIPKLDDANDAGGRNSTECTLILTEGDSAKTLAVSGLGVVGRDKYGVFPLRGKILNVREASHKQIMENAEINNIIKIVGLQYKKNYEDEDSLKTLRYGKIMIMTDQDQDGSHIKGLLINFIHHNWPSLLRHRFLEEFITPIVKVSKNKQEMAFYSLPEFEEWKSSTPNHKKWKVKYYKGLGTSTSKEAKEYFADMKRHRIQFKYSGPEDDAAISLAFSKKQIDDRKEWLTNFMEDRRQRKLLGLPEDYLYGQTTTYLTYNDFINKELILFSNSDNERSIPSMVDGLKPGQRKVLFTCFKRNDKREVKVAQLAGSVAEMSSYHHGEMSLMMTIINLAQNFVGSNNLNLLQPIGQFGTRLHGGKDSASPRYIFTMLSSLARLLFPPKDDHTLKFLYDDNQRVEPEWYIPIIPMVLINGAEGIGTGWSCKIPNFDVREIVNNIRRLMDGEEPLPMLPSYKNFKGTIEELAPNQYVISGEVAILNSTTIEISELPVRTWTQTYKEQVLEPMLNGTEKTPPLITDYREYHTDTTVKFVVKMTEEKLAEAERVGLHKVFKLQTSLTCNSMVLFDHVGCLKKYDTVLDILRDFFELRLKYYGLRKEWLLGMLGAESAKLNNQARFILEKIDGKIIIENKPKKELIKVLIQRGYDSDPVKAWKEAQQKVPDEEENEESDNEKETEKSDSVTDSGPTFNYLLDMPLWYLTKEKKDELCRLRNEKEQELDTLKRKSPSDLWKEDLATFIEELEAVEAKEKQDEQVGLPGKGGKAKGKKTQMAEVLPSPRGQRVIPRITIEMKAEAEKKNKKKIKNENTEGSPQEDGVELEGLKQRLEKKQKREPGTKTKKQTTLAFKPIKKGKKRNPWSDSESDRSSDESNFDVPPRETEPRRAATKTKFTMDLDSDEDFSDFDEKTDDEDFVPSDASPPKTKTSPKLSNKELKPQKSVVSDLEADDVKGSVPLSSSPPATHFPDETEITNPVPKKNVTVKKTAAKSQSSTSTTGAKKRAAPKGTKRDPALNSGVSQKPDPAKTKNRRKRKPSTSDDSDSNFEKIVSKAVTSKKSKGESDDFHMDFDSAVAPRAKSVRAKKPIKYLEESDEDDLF", "assay": "Inhibition of topoisomerase II activity (TopoGEN Topoisomerase II Drug Screening Kit)", "format": "biochemical", "settings": "cell-free; FIG. 13; 0.3, 3, 30 μg/ml", "experimental": "With the liquid extract ViP-E_Matr'08_1102, prepared according to example 7, the liquid extract ViP-E_Matr08_1106, prepared according to example 8, or the liquid extract ViP-E_Matr'08_1105, prepared according to example 9, […] As positive control etoposide was carried along.\nThe inhibition of topoisomerase II was determined using purified human DNA topoisomerase Ilα and the “Topoisomerase II Drug Screening Kit” from TopoGEN. Thereby it was proceeded according to the manufacturer's protocol. The DNA was separated by electrophoresis on an agarose gel and visualized under UV light after staining with ethidium bromide. With this approach the relaxed DNA (topoisomers) generated by topoisomerase II could be detected and clearly separated from the supercoiled DNA substrate."}
{"substance": "α-Bisabolol", "values": [{"measurement": "inhibition of topoisomerase II activity", "value": "did not influence the topoisomerase II activity in all tested concentrations"}]}
